In patent US20260265190A1, “AROMATIC COMPOUNDS FOR USE AS PROTEIN PHOSPHATASE 2A (PP2A) MODULATORS” (RAPPTA THERAPEUTICS OY, priority 2022, published 2026):

Test system: HCC1937 cells
Test: Cell viability assay (MTS), HCC1937 cell line
Assay type: cell-based
Settings: Homo sapiens, HCC1937 cell line (footnote a), 48 hours
Method: HCC1937 cells are plated in a 96 well plate format at a density of 10,000 cells per well. After incubation overnight, cells are treated with a compound (e.g., compound 5) at the following concentrations: 80, 40, 20, 10, 5, 2.5, 1.25 μM. Compound concentrations are prepared in RPMI via serial dilutions from a starting stock of 80 mM. Forty-eight (48) hours after compound treatment, cell viability is assessed using the Promega CellTiter 96 aqueous one proliferation assay (Promega G3582, MTS assay) according to manufacturer's protocol.
The cell viability data was analyzed with GraphPad Prism software. The values were log transformed and analyzed with non-linear regression (curve-fit) using log (inhibitor) vs. response—variable slope (four parameters) and constraining the bottom to equal zero. Unless otherwise indicated, the GI50 values provided in Table 1 correspond to the LNCaP cell viability assays.

## O=S(=O)(N[C@H](c1ccc(Cl)cn1)C1CCNCC1)c1ccc(OC(F)(F)F)cc1 [Example 15, (S)-N-((5-chloropyridin-2-yl)(piperidin-4-yl)methyl)-4-(trifluoromethoxy)benzenesulfonamide]
  GI50: 48.7 µM
